The record followed here is BindingDB's records for patent WO2022079616 (NOVARTIS AG, 2022).

What is called IC50 is the concentration needed to halve the response being measured. A higher IC50 goes with lower potency.

For test [1], the target named is T1, Phosphatidylinositol 4-kinase (Cryptosporidium parvum (strain Iowa II), UniProt Q5CVD3).
T1 sequence (Q5CVD3 whole entry): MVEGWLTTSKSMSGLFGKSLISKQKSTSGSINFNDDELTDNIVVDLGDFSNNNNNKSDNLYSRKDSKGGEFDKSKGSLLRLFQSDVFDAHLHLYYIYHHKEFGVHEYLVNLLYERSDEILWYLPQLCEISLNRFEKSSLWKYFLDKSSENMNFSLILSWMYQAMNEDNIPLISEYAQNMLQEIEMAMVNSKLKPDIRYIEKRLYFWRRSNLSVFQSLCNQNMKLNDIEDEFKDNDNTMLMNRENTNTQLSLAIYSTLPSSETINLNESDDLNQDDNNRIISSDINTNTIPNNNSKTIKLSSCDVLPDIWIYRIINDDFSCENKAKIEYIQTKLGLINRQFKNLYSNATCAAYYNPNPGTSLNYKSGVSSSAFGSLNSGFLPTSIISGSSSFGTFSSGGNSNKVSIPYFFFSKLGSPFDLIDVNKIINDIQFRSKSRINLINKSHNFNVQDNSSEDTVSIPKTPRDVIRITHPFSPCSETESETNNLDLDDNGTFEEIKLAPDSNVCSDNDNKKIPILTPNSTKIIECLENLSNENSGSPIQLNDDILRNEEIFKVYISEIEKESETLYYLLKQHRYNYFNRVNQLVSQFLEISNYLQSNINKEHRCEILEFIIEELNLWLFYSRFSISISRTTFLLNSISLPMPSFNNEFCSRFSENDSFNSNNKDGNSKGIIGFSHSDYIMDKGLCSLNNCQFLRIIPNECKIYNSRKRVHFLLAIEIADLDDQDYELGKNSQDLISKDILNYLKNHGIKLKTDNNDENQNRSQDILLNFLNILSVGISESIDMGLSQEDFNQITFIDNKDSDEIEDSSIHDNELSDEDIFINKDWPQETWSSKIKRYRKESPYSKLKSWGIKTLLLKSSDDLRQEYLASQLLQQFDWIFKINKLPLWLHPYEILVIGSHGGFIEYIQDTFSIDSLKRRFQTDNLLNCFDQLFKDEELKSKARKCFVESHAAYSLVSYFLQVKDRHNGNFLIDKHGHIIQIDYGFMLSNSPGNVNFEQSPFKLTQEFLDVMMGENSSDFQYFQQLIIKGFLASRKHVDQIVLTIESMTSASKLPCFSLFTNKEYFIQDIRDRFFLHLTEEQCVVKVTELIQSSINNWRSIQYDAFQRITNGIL
The experiment in a line: PI(4)K enzymatic Assay. The source says: Baculovirus expression and purification of C. parvum phosphatidylinositol 4-kinase: The full-length coding sequence of C. parvum PI(4)K (cgd8_4500, 1114 amino acids) was codon-optimized for baculovirus expression, synthesized and cloned into pFastBac-HTb (Invitrogen 10584-027) in frame with the amino-terminal polyhistidine tag using the BamHI and HindIII restriction sites. Recombinant pFastBacHTb-CpPI(4)K bacmid clones were generated by site-specific transposition in E. coli DH10Bac (Invitrogen 10361-012). The bacmid sequence was confirmed by direct DNA sequencing to confirm a lack of mutations across the whole gene. The subsequent steps for bacmid isolation, transfection and selection of the recombinant viruses were performed according to the manufacturer s protocol (Bac-to-Bac system # 10359, Invitrogen).SF9 cells, cultured in SF-900 III serum-free medium, were transfected with recombinant baculovirus at 1/200 (v/v) and incubated at 27 °C for 72^h. The pellets were collected after centrifugation and re-suspended in cell lysis buffer (20^mM Tris-HCl, pH^7.5, 300^mM NaCl, 1mM DTT, 20mM imidazole, 0.01% Triton X-100 and 1×^complete protease inhibitor cocktail without EDTA (Roche Diagnostics 04693116001)). The cell suspension was lysed by sonication and the clarified supernatant was loaded onto a 1^ml HisTrap affinity column (GE Healthcare) pre-equilibrated with buffer A (20^mM Tris-HCl, pH^7.5, 300^mM NaCl, 1mM DTT, 20mM Imidazole, and 1×^complete protease inhibitor cocktail without EDTA). The column was washed with buffer B (buffer A containing 45 mM imidazole) and the bound protein of interest was eluted with buffer C (buffer A with 90^mM imidazole). The fractions containing CpPI(4)K were pooled, concentrated using Amicon Ultra-15 and purified by a gel-filtration column (Hi-Load 26/60 Superdex 200, GE Healthcare) equilibrated with 20^mM Tris, pH^7.5, 300^mM NaCl, 1^mM DTT and 1×^protease inhibitor cocktail without EDTA. The concentrations of the purified protein (Mw 132.39 kda) was determined by using the protein molar extinction coefficient (ε280^nm = 133,810^M−1^cm−1). Aliquots were flash frozen in liquid nitrogen and immediately stored at −80 °C.PI(4)K enzymatic Assay: The CpPI(4)K enzymatic assay was performed as described earlier with a some modifications (McNamara et al., 2013). Briefly, L-α-phosphatidylinositol (Avanti Polar Lipid 840046), dissolved in 3% n-octylglucoside (Roche Diagnostics 10634425001), was used as the lipid substrate for the PI(4)K activity assay. CpPI(4)K was assayed using Transcreener ADP2 FP detection kit (BellBrook 3010) in a black, solid 384-well plate (Corning 3575). The final assay volume was 10^μl and contained 3^nM of the respective CpPI(4)K construct in 10^mM Tris, pH^7.5, 1^mM DTT, 3^μM ATP, 5^mM Mn2+, 0.05% Triton X-100 and 10^μM phosphatidylinositol/octylglucoside. The enzyme reaction was performed for 50 minutes at room temperature and was stopped by adding 10^μl of detection mix containing 1×^stop buffer (50mM HEPES, pH7.5, 400mM NaCl, 20mM EDTA, and 0.02% Brij-35), 2^nM AMP Alexa Fluor 633 tracer, and 20^μg^ml−1 ADP antibody. Fluorescence polarization measurements were performed on the Infinite M1000 plate reader (Tecan) with λex = 635^nm and λem = 680^nm (20-nm bandwidth). IC50 values were calculated using Graphpad Prism software.

The target in test [2] is PI3K/PI4K catalytic domain-containing protein (Cryptosporidium hominis, UniProt A0A0S4TH36).
PI3K/PI4K catalytic domain-containing protein, sequence (A0A0S4TH36 whole entry, the tested form may be a part): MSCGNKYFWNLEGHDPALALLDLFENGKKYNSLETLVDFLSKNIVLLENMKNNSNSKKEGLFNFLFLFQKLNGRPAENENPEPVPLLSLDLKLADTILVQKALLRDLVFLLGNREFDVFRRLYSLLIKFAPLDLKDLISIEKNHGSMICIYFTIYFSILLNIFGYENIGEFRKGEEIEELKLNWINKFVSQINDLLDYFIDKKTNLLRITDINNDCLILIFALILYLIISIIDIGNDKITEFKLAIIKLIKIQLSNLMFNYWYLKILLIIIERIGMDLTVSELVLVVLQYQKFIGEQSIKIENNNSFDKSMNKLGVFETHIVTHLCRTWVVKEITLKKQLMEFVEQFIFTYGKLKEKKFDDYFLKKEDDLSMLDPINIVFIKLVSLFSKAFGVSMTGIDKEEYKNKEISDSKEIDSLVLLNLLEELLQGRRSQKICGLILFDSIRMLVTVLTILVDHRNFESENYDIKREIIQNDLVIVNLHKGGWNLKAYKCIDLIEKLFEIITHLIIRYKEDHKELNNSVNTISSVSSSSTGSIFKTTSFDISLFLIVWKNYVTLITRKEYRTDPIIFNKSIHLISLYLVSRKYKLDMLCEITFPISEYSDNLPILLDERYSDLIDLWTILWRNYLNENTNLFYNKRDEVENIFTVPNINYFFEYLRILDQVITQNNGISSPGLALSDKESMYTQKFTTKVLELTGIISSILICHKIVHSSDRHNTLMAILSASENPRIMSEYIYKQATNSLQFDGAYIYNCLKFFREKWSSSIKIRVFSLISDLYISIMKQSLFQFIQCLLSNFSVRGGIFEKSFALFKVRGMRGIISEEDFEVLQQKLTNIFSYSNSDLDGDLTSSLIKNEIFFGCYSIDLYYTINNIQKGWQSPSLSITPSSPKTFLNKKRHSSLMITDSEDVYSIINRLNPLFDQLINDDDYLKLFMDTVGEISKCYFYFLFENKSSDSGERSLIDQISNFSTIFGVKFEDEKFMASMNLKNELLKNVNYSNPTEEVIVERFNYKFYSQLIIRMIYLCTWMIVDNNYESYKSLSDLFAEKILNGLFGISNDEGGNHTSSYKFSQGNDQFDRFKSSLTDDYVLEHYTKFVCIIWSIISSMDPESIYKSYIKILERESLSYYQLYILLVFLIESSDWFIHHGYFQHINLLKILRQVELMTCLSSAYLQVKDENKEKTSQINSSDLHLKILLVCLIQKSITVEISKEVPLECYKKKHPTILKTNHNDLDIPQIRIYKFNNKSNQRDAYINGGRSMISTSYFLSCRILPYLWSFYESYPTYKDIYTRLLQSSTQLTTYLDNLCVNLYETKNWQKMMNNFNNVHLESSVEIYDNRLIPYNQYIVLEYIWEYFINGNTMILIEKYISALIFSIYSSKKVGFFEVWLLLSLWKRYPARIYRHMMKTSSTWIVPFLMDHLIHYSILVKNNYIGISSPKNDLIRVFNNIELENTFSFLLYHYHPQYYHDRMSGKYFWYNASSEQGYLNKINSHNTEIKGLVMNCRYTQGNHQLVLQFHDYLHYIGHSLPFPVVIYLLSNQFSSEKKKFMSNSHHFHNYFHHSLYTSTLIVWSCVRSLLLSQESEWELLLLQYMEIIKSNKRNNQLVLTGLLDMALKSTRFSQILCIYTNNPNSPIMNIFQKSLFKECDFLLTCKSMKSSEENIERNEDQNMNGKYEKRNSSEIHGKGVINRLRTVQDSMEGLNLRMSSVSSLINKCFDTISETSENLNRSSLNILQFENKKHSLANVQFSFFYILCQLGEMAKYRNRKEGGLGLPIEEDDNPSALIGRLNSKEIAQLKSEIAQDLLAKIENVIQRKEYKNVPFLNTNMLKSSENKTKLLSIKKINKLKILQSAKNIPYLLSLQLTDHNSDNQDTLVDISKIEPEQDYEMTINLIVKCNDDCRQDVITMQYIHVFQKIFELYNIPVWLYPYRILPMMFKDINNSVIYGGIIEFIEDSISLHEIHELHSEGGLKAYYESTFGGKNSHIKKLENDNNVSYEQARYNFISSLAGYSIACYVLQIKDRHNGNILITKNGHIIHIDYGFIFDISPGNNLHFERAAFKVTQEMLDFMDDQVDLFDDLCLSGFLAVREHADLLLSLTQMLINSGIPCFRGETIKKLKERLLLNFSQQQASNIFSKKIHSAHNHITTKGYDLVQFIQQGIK

As to `CNC(=O)c1ccc(-c2cnn3ccc(C(=O)N(C)c4ccc(Cl)c(C(=O)O)c4)cc23)cc1` [WO2022079616, Example 1.18], the IC50 in test [1] was less than 100 nM; in test [2], 550 nM.
The like results for `COC(=O)c1cc(NC(=O)c2ccn3ncc(-c4ccc(C(N)=O)cc4)c3c2)ccc1Cl` [WO2022079616, Example 1.23] were, in that order, more than 1000 nM and more than 1000 nM.
Turning to `CNC(=O)c1ccc(-c2cnn3ccc(C(=O)N(C)c4ccc(OC(F)(F)F)c(C(=O)OC)c4)cc23)cc1` [WO2022079616, Example 1.26], in test [1], the IC50 is less than 100 nM.
The same measure, in the same setting: next, `CNC(=O)c1ccc(-c2cnn3ccc(C(=O)N(C)c4ccc(Cl)c(C(=O)OC(C)(C)C)c4)cc23)cc1` [WO2022079616, Example 1.17]: less than 100 nM.
In test [1], `CCOC(=O)c1cc(N(C)C(=O)c2ccn3ncc(-c4ccc(C(N)=O)cc4)c3c2)ccc1Cl` [WO2022079616, Example 1.09] yielded a concentration for half-maximal inhibition (IC50) of less than 100 nM.
As to `CN(C(=O)c1ccn2ncc(-c3ccc(C(N)=O)cc3)c2c1)c1ccc(Cl)c(C(=O)O)c1` [WO2022079616, Example 1.03], in test [1], the IC50 was less than 100 nM.
Consider `CNC(=O)c1ccc(-c2cnn3ccc(C(=O)Nc4ccc(Cl)c(C(=O)OC)c4)cc23)cc1` [WO2022079616, Example 1.24], for which the IC50 in test [1] and in test [2] was more than 1000 nM each time.
Consider `CN(C)C(=O)COC(=O)c1cc(N(C)C(=O)c2ccn3ncc(-c4ccc(C(N)=O)cc4)c3c2)ccc1Cl` [WO2022079616, Example 1.12], for which, in test [1], the IC50 was less than 100 nM.
Take `CN(C(=O)c1ccn2ncc(-c3ccc(C(N)=O)cc3)c2c1)c1ccc(Cl)c(C(=O)OCCN2CCOCC2)c1` [WO2022079616, Example 1.08]: the IC50 in test [1] is less than 100 nM; in test [2], more than 1000 nM.
With `COCCOC(=O)c1cc(N(C)C(=O)c2ccn3ncc(-c4ccc(C(N)=O)cc4)c3c2)ccc1Cl` [WO2022079616, Example 1.11], the IC50 in test [1] is less than 100 nM.
`CN(C(=O)c1ccn2ncc(-c3ccc(C(N)=O)cc3)c2c1)c1ccc(Cl)c(C(=O)OCC2CCCO2)c1` (racemic) [WO2022079616, Example 1.15] showed an IC50 in test [1] of less than 100 nM.
Consider `COC(=O)c1cc(N(C)C(=O)c2ccn3ncc(-c4ccc(C(N)=O)cc4)c3c2)ccc1OC(F)(F)F` [WO2022079616, Example 1.25], for which the values for the IC50 in test [1] and in test [2] were less than 100 nM and more than 1000 nM, respectively.
With `CN(C(=O)c1ccn2ncc(-c3ccc(C(N)=O)cc3)c2c1)c1ccc(Cl)c(C(=O)OCC(F)(F)F)c1` [WO2022079616, Example 1.10], the IC50 in test [1] is less than 100 nM.
`CC(C)OC(=O)c1cc(N(C)C(=O)c2ccn3ncc(-c4ccc(C(N)=O)cc4)c3c2)ccc1Cl` [WO2022079616, Example 1.13] had an IC50 in test [1] of less than 100 nM.
The same measure, in the same setting: next, `CN(C(=O)c1ccn2ncc(-c3ccc(C(N)=O)cc3)c2c1)c1ccc(Cl)c(C(=O)OC(C)(C)C)c1` [WO2022079616, Example 1.02]: less than 100 nM.
`COC(=O)c1cc(N(C)C(=O)c2ccn3ncc(-c4ccc(C(N)=O)cc4)c3c2)ccc1C#N` [WO2022079616, Example 1.27]: the IC50 in test [1] was 550 nM; in test [2], more than 1000 nM.
For the molecule `CSCCOC(=O)c1cc(N(C)C(=O)c2ccn3ncc(-c4ccc(C(N)=O)cc4)c3c2)ccc1Cl` [WO2022079616, Example 1.04], in test [1], the IC50 was less than 100 nM.
In the case of `CNC(=O)c1ccc(-c2cnn3ccc(C(=O)N(C)c4ccc(Cl)c(C(=O)OC)c4)cc23)cc1C` [WO2022079616, Example 1.22], the IC50 was 550 nM in test [1] and more than 1000 nM in test [2].
The like results for `COC(=O)c1cc(Cl)ccc1N(C)C(=O)c1ccn2ncc(-c3ccc(C(N)=O)cc3)c2c1` [WO2022079616, Example 4.1] were, in that order, less than 100 nM and 550 nM.
`CC(C)COC(=O)c1cc(N(C)C(=O)c2ccn3ncc(-c4ccc(C(N)=O)cc4)c3c2)ccc1Cl` [WO2022079616, Example 1.05]: the IC50 in test [1] is less than 100 nM.
Same read-out and setting: the value for `COC(=O)COC(=O)c1cc(N(C)C(=O)c2ccn3ncc(-c4ccc(C(N)=O)cc4)c3c2)ccc1Cl` [WO2022079616, Example 1.06] was less than 100 nM.
Regarding `COC(=O)c1cc(N(C)C(=O)c2ccn3ncc(-c4ccc(C(N)=O)cc4C)c3c2)ccc1Cl` [WO2022079616, Example 1.21], the IC50 in test [1] is less than 100 nM; in test [2] it was more than 1000 nM.
The like results for `CCOC(=O)OC(C)OC(=O)c1cc(N(C)C(=O)c2ccn3ncc(-c4ccc(C(N)=O)cc4)c3c2)ccc1Cl` (racemic) [WO2022079616, Example 1.14] were, in that order, 550 nM and more than 1000 nM.
The corresponding values for `CNC(=O)c1ccc(-c2cnn3cnc(C(=O)N(C)c4ccc(Cl)c(C(=O)OC)c4)cc23)cc1` [WO2022079616, Example 3.1] are less than 100 nM and more than 1000 nM.
The like results for `CNC(=O)c1ccc(-c2cnn3ccc(C(=O)N(C)c4ccc(Cl)c(C(=O)OC)c4)cc23)cc1` [WO2022079616, Example 1.16] were, in that order, less than 100 nM and 550 nM.
Regarding `CNC(=O)c1ccc(-c2cnn3ccc(C(=O)N(C)c4ccc(Cl)c(C(=O)OCCN5CCOCC5)c4)cc23)cc1` [WO2022079616, Example 1.19], the IC50 was less than 100 nM in test [1] and 550 nM in test [2].
The corresponding values for `CNC(=O)c1ccc(-c2cnc3cnc(C(=O)N(C)c4ccc(Cl)c(C(=O)OC)c4)cn23)cc1` [WO2022079616, Example 2.1] are less than 100 nM and more than 1000 nM.
